Measurements reported in patent US20250144067A1, “PERSONALIZED STARVATION THERAPY FOR CANCER” (Faeth Therapeutics, Inc., priority 2021, published 2025).
Counter-ions that a name gives are not always drawn.

Key:
[1] = tested on: NCI-H292 lung cancer cells; experiment: FDA drug screening, complete media vs cholesterol-free media with simvastatin (TABLE 2); format: cell-based, human; details: for Cholesterol-free media + simvastatin (0.04 μM) / Complete Media: NCI-H292 cells; for Difference: >0 enhanced anti-cancer activity, about 0 neutral, <0 antagonist
[2] = tested on: NCI-H292 lung cancer cells; experiment: FDA drug screening, complete media vs cholesterol-free media without statin (TABLE 1); format: cell-based, human; details: for Difference: about 0 neutral
[3] = cholesterol-free media with simvastatin 0.04 μM, FDA drug library screen (TABLE 2)
[4] = complete media, FDA drug library screen (TABLE 2)
[5] = complete media minus cholesterol-free media + simvastatin (0.04 μM)
[6] = Complete minus Cholesterol-free, >0 enhanced anti-cancer activity, <0 antagonist
[7] = FDA drug library screen, cholesterol-free media with simvastatin 0.04 μM
[8] = FDA drug library screen, complete media
[9] = complete media vs cholesterol-free media + simvastatin (0.04 μM)
[10] = NCI-H292 cells, cholesterol-free media without statin, FDA drug library screen
[11] = NCI-H292 cells, complete media, FDA drug library screen
[12] = complete vs cholesterol-free media, >0 enhanced anti-cancer activity, <0 antagonist
[13] = drug in cholesterol-free media with simvastatin 0.04 μM
[14] = complete media minus cholesterol-free media + simvastatin
[15] = Complete minus Cholesterol-free, greater than 0 enhanced anti-cancer activity, below 0 antagonists
[16] = NCI-H292 cells in cholesterol-free media without statin
[17] = NCI-H292 cells in complete media

Structure (SMILES)	Difference [2, 6]	Cholesterol-free media + simvastatin (0.04 μM) [1, 7]	Complete Media [1, 8]	Difference [1, 9]	Cholesterol-free [2, 10]	Complete [2, 11]	Difference [2, 12]	Difference [2, 15]	Cholesterol-free [2, 16]	Complete [2, 17]	other results
CCCCOCCOCCOCc1cc2c(cc1CCC)OCO2 [Piperonyl butoxide]	−0.29										Cholesterol-free media + simvastatin (0.04 μM) [1, 3]: 1.206; Complete Media [1, 4]: 1.18; Difference [1, 5]: −0.03; Cholesterol-free ([2]; NCI-H292 cells, cholesterol-free media without statin): 1.491; Complete ([2]; NCI-H292 cells, complete media): 1.202
CO[C@@H]1[C@@H](O[C@@H]2O[C@H](C)[C@@H](O[C@H]3C[C@@](C)(O)[C@@H](OC(=O)CC(C)C)[C@H](C)O3)[C@H](N(C)C)[C@H]2O)[C@@H](CC=O)C[C@@H](C)[C@@H](O)/C=C/C=C/C[C@@H](C)OC(=O)C[C@H]1OC(C)=O [Josamycin]		0.9194	0.8246	−0.09	0.6797	1.216	0.54				
O=c1c(O[C@@H]2O[C@H](CO)[C@H](O)[C@H](O)[C@H]2O)c(-c2ccc(O)c(O)c2)oc2cc(O)cc(O)c12 [Hyperoside]	−0.03	0.9665	0.8144	−0.15	0.9192	0.8906					
CC(C)Oc1ccc(-c2nc(-c3cccc4c3CC[C@@H]4NCCO)no2)cc1C#N [Ozanimod]	−0.03			−0.17	1.036	1.004					Cholesterol-free media + simvastatin (0.04 μM) [1, 13]: 1.119; Complete Media ([1]; drug in complete media): 0.9531
O=C(/C=C/c1cccc(S(=O)(=O)Nc2ccccc2)c1)NO [Belinostat]		0.2409	0.1471	−0.09	0.07179	0.1605	0.09				
Clc1ccccc1C(c1ccccc1)(c1ccccc1)n1ccnc1 [Clotrimazole]		0.4166	0.8582					−0.77	1.485	0.7188	Difference [1, 14]: 0.44
NC(=O)Cc1cccc(C(=O)c2ccccc2)c1N [Nepafenac]								−0.71	1.612	0.8984	Cholesterol-free media + simvastatin (0.04 μM) [1, 3]: 1.737; Complete Media [1, 4]: 1.699; Difference [1, 5]: −0.04
C=CC(=O)Nc1cc(Nc2nccc(-c3cn(C4CC4)c4ccccc34)n2)c(OC)cc1N(C)CCN(C)C [Almonertinib (hydrochloride)]	−0.07				0.4284	0.3618					Cholesterol-free media + simvastatin (0.04 μM) ([1]; cholesterol-free media with simvastatin 0.04 μM, cell growth value in FDA drug screen): 0.6861; Complete Media ([1]; complete media, cell growth value in FDA drug screen): 0.7198; Difference [1, 14]: 0.03
[H]/N=C(\N/C(=N/[H])NCCCCCCNC(=N)NC(=N)Nc1ccc(Cl)cc1)Nc1ccc(Cl)cc1 [Chlorhexidine (digluconate)]					0.8244	0.943	0.12				Cholesterol-free media + simvastatin (0.04 μM) [1, 3]: 1.008; Complete Media [1, 4]: 0.9694; Difference [1, 5]: −0.04
COc1cccc(-c2c(C)n(Cc3c(F)cccc3C(F)(F)F)c(=O)n(C[C@H](NCCCC(=O)O)c3ccccc3)c2=O)c1F [Elagolix sodium]		1.413	1.627					−0.93	1.728	0.7978	Difference [1, 14]: 0.21
CCC(C)n1ncn(-c2ccc(N3CCN(c4ccc(OCC5COC(Cn6cncn6)(c6ccc(Cl)cc6Cl)O5)cc4)CC3)cc2)c1=O (stereo not drawn) [Itraconazole]		1.121	0.9797	−0.14	0.7502	1.257	0.51				
O=C(O)CSc1nnc(Br)n1-c1ccc(C2CC2)c2ccccc12 [Lesinurad (sodium)]		0.8519	0.7365	−0.12	0.8857	1.263	0.38				
Nc1cc(-c2ccncc2)c[nH]c1=O [Amrinone]				−0.21				−0.48	1.339	0.861	Cholesterol-free media + simvastatin (0.04 μM) [1, 13]: 1.157; Complete Media ([1]; drug in complete media): 0.9441
